The subject of one data set is SARS-CoV-2. Nature of the data set: Antiviral activity against SARS-CoV-2 infected in African green monkey Vero cells assessed as inhibition of viral infection by measuring nucleocapsid protein level by immunofluorescence microscopic analysis. The data set is classed as functional, organism-based. The settings on record: Severe acute respiratory syndrome coronavirus 2, Vero.

In data set [1] the test system is Middle East respiratory syndrome-related coronavirus. Nature of the data set: Antiviral activity against MERS-CoV infected in African green monkey Vero cells assessed as inhibition of viral infection by measuring reduction in spike protein level by immunofluorescence microscopic analysis. The format is functional, organism-based.
The nature of data set [2]: Selective index, ratio of CC50 for African green monkey Vero cells to IC50 for MERS-CoV infected in African green monkey Vero cells.
For a further data set, the system named is Vero. The data set is described as follows: Cytotoxicity against African green monkey Vero cells assessed as reduction of cell viability by WST-1 assay. The format is cell-based. The settings on record: chlorocebus sabaeus. In general terms: Tetrazolium dyes change colour on reduction, which living cells bring about.
The nature of data set [3]: Selective index, ratio of CC50 for African green monkey Vero cells to IC50 for SARS-CoV-2 infected in African green monkey Vero cells.

The structures appear in SMILES notation.

Usually IC50 stands for the concentration that gives 50% inhibition. In general, CC50 refers to the concentration giving 50% cytotoxicity. Consider `O=c1[nH]c(Nc2cc(F)cc(F)c2)nc2cc([N+](=O)[O-])ccc12`, for which the figures for the 50% inhibitory concentration (IC50) (in the data set with SARS-CoV-2; in data set [1]) were 0.41 µM and 8.5 µM, respectively. The “Ratio CC50/IC50” value in data set [2] was determined as 2.9; in data set [3], 61. Also, the CC50 in the data set with Vero was above 25 µM.

With `N#Cc1cccc(Nc2nc3cc(Cl)ccc3c(=O)[nH]2)c1`, the 50% inhibitory concentration (IC50) in the data set on SARS-CoV-2 was determined as 1.7 µM. Moreover, the 50% cytotoxic concentration (CC50) in the data set with Vero is above 25 µM. For the same compound, the “Ratio CC50/IC50” value in data set [3] is 15.

For the compound `O=c1[nH]c(Nc2cc(Cl)cc(Cl)c2)nc2cc(O)ccc12`, in the data set with SARS-CoV-2, the concentration for half-maximal inhibition (IC50) is above 25 µM. The 50% cytotoxic concentration (CC50) in the data set with Vero is above 25 µM. Further, the “Ratio CC50/IC50” value in data set [3] was 1.

Consider `COc1cccc2nc(Nc3cc(F)cc(F)c3)[nH]c(=O)c12`, for which the IC50 in the data set on SARS-CoV-2 is above 25 µM. In addition, in the data set on Vero, the half-maximal cytotoxic concentration (CC50) was above 25 µM. The “Ratio CC50/IC50” value in data set [3] is reported as 1.

Regarding `O=c1[nH]c(NCC2CCCCC2)nc2cc(Cl)ccc12`, in the data set with SARS-CoV-2, the IC50 is 14 µM. Also, the CC50 in the data set with Vero was above 25 µM. Besides, the “Ratio CC50/IC50” value in data set [3] is on record as 1.7.

With `O=c1[nH]c(Nc2cc(F)cc(F)c2)nc2cc(O)ccc12`, the concentration for half-maximal inhibition (IC50) with SARS-CoV-2 was above 25 µM. Also, the cytotoxic concentration (CC50) in the data set on Vero is above 25 µM. For the same compound, in data set [3], the “Ratio CC50/IC50” value was found to be 1.

With `O=c1[nH]c(Nc2ccc(F)c(F)c2F)nc2cc(Cl)ccc12`, in the data set on SARS-CoV-2, the concentration for half-maximal inhibition (IC50) is 2.6 µM. In addition, the CC50 in the data set on Vero was above 25 µM. Further, the “Ratio CC50/IC50” value in data set [3] stood at 9.4.

Turning to `COC(=O)c1cccc(Nc2nc3cc(Cl)ccc3c(=O)[nH]2)c1`, the half-inhibitory concentration (IC50) in the data set on SARS-CoV-2 turned out to be 8.8 µM. Also, in the data set with Vero, the CC50 is above 25 µM. In addition, in data set [3], the “Ratio CC50/IC50” value was found to be 2.8.

With `O=c1[nH]c(Nc2cc(F)cc(F)c2)nc2c(Cl)ccc(Cl)c12`, the results for the 50% inhibitory concentration (IC50) (in the data set with SARS-CoV-2; in data set [1]) were 0.33 µM and 0.79 µM, respectively. The “Ratio CC50/IC50” value is recorded as 31 in data set [2] and 76 in data set [3]. In addition, the CC50 in the data set on Vero was above 25 µM.

Regarding `O=c1[nH]c(Nc2cc(F)cc(F)c2)nc2c(Cl)c(Cl)ccc12`, the values for the concentration for half-maximal inhibition (IC50) (in the data set on SARS-CoV-2; in data set [1]) were 0.25 µM and 0.83 µM, respectively. Further, the “Ratio CC50/IC50” value in data set [2] worked out at 30; in data set [3] it was 98. Moreover, the cytotoxic concentration (CC50) with Vero was above 25 µM.

Take `O=c1[nH]c(Nc2cc(Cl)cc(Cl)c2)nc2c(Cl)ccc(Cl)c12`: the IC50 in the data set on SARS-CoV-2 is 0.35 µM; in data set [1] it was 0.62 µM. Also, the “Ratio CC50/IC50” value in data set [2] is recorded as 42; in data set [3], 71. Besides, the CC50 in the data set on Vero is above 25 µM.

With `O=c1[nH]c(Nc2cc(O)cc(O)c2)nc2cc(Cl)ccc12`, the 50% inhibitory concentration (IC50) in the data set on SARS-CoV-2 was above 25 µM. Moreover, in the data set on Vero, the CC50 was above 25 µM. The “Ratio CC50/IC50” value in data set [3] is given as 1.

Turning to `O=c1[nH]c(Nc2ccc(F)cc2F)nc2cc(Cl)ccc12`, the concentration for half-maximal inhibition (IC50) with SARS-CoV-2 is above 25 µM. In the data set on Vero, the 50% cytotoxic concentration (CC50) was above 25 µM. For the same compound, in data set [3], the “Ratio CC50/IC50” value is given as 1.

Take `COc1cccc(Nc2nc3cc(Cl)ccc3c(=O)[nH]2)c1`: the IC50 in the data set with SARS-CoV-2 came out at 11 µM. In addition, the cytotoxic concentration (CC50) with Vero is above 25 µM. Also, in data set [3], the “Ratio CC50/IC50” value was determined as 2.3.

For the compound `O=c1[nH]c(Nc2cccc(C(F)(F)F)c2)nc2cc(Cl)ccc12`, in the data set on SARS-CoV-2, the IC50 came out at 0.68 µM. Also, in the data set on Vero, the half-maximal cytotoxic concentration (CC50) was above 25 µM. In addition, the “Ratio CC50/IC50” value in data set [3] worked out at 37.

In the case of `O=c1[nH]c(N2CCCCC2)nc2cc(Cl)ccc12`, the IC50 in the data set on SARS-CoV-2 is above 25 µM. Moreover, in the data set on Vero, the cytotoxic concentration (CC50) is above 25 µM. For the same compound, the “Ratio CC50/IC50” value in data set [3] was determined as 1.

Consider `O=c1[nH]c(Nc2ccc(Cl)cc2Cl)nc2cc(Cl)ccc12`, for which, in the data set on SARS-CoV-2, the IC50 was above 25 µM. Also, the cytotoxic concentration (CC50) with Vero was above 25 µM. For the same compound, in data set [3], the “Ratio CC50/IC50” value is 1.

Consider `O=c1[nH]c(Nc2cc(F)cc(F)c2)nc2cccc(O)c12`, for which the IC50 with SARS-CoV-2 amounted to 0.47 µM; in data set [1] it was 1.1 µM. Besides, the “Ratio CC50/IC50” value is given as 22 in data set [2] and 54 in data set [3]. For the same compound, the 50% cytotoxic concentration (CC50) in the data set with Vero is above 25 µM.

`O=c1[nH]c(Nc2cccc(O)c2)nc2cc(Cl)ccc12`: the 50% inhibitory concentration (IC50) in the data set with SARS-CoV-2 is above 25 µM. Moreover, in the data set on Vero, the CC50 was above 25 µM. Also, the “Ratio CC50/IC50” value in data set [3] was determined as 1.

Consider `O=c1[nH]c(Nc2cc(Cl)cc(Cl)c2)nc2cc(N3CCOCC3)ccc12`, for which the concentration for half-maximal inhibition (IC50) in the data set with SARS-CoV-2 is above 25 µM. Moreover, the half-maximal cytotoxic concentration (CC50) in the data set with Vero is above 25 µM. The “Ratio CC50/IC50” value in data set [3] is on record as 1.

As for `O=c1[nH]c(Nc2ccc(F)cc2)nc2cc(Cl)ccc12`, in the data set with SARS-CoV-2, the IC50 is above 25 µM. In the data set with Vero, the CC50 is above 25 µM. Besides, in data set [3], the “Ratio CC50/IC50” value is given as 1.

In the case of `Cc1cc(C)c2nc(Nc3cc(F)cc(F)c3)[nH]c(=O)c2c1`, the 50% inhibitory concentration (IC50) in the data set with SARS-CoV-2 was above 25 µM. In addition, the 50% cytotoxic concentration (CC50) with Vero is above 25 µM. Besides, in data set [3], the “Ratio CC50/IC50” value is 1.

Turning to `O=c1[nH]c(Nc2ccccc2F)nc2cc(Cl)ccc12`, in the data set on SARS-CoV-2, the IC50 was above 25 µM. Moreover, the CC50 in the data set on Vero was above 25 µM. Besides, in data set [3], the “Ratio CC50/IC50” value was 1.

`COc1cccc2nc(Nc3cc(Cl)cc(Cl)c3)[nH]c(=O)c12`: the half-inhibitory concentration (IC50) in the data set on SARS-CoV-2 was above 25 µM. For the same compound, the half-maximal cytotoxic concentration (CC50) with Vero was above 25 µM. Moreover, in data set [3], the “Ratio CC50/IC50” value came to 1.

On to `O=c1[nH]c(Nc2cc(Cl)cc(Cl)c2)nc2c(Cl)c(Cl)ccc12`, for which the IC50 in the data set on SARS-CoV-2 came to 0.24 µM; in data set [1], 0.88 µM. The “Ratio CC50/IC50” value in data set [2] was found to be 31; in data set [3], 103. Also, the 50% cytotoxic concentration (CC50) with Vero was above 25 µM.

In the case of `O=c1[nH]c(Nc2cc(Cl)cc(Cl)c2)nc2cc(C(F)(F)F)ccc12`, the IC50 in the data set with SARS-CoV-2 turned out to be 0.21 µM; in data set [1], 0.96 µM. The “Ratio CC50/IC50” value in data set [2] came to 7.6; in data set [3] it was 34. Besides, in the data set with Vero, the CC50 was 7.1 µM.

In the case of `CC(C)Nc1nc2cc(Cl)ccc2c(=O)[nH]1`, the IC50 in the data set with SARS-CoV-2 is above 25 µM. Moreover, the cytotoxic concentration (CC50) in the data set with Vero is above 25 µM. For the same compound, the “Ratio CC50/IC50” value in data set [3] turned out to be 1.

For the compound `O=c1[nH]c(Nc2cc(F)cc(F)c2)nc2cc(C(F)(F)F)ccc12`, the IC50 is 0.2 µM in the data set with SARS-CoV-2 and 0.73 µM in data set [1]. Moreover, the “Ratio CC50/IC50” value in data set [2] was 35; in data set [3] it was 38. In addition, in the data set with Vero, the 50% cytotoxic concentration (CC50) was at least 7.6 µM.

As for `O=c1[nH]c(Nc2cc(Cl)cc(Cl)c2)nc2cc([N+](=O)[O-])ccc12`, the half-maximal inhibitory concentration (IC50) was 0.51 µM in the data set on SARS-CoV-2 and above 25 µM in data set [1]. In addition, the “Ratio CC50/IC50” value was found to be 1 in data set [2] and 49 in data set [3]. In the data set with Vero, the half-maximal cytotoxic concentration (CC50) was above 25 µM.

Consider `Cc1cc(C)c2nc(Nc3cc(Cl)cc(Cl)c3)[nH]c(=O)c2c1`, for which the half-maximal inhibitory concentration (IC50) in the data set on SARS-CoV-2 was above 25 µM. Further, in the data set with Vero, the CC50 is above 25 µM. For the same compound, in data set [3], the “Ratio CC50/IC50” value is listed as 1.

Regarding `O=c1[nH]c(Nc2cccc(F)c2)nc2cc(Cl)ccc12`, the concentration for half-maximal inhibition (IC50) in the data set with SARS-CoV-2 was 1.4 µM. Also, the 50% cytotoxic concentration (CC50) in the data set on Vero was above 25 µM. The “Ratio CC50/IC50” value in data set [3] came to 18.

`Nc1ccc2c(=O)[nH]c(Nc3cc(F)cc(F)c3)nc2c1`: in the data set with SARS-CoV-2, the IC50 is above 25 µM. Moreover, the cytotoxic concentration (CC50) in the data set with Vero is above 25 µM. In addition, the “Ratio CC50/IC50” value in data set [3] is 1.

For the compound `O=c1[nH]c(Nc2cc(Cl)cc(Cl)c2)nc2c(O)cccc12`, the half-inhibitory concentration (IC50) was 0.37 µM in the data set with SARS-CoV-2 and 1.7 µM in data set [1]. The “Ratio CC50/IC50” value in data set [2] turned out to be 14; in data set [3], 65. Besides, in the data set on Vero, the CC50 was above 25 µM.

In the case of `CCCCNc1nc2cc(Cl)ccc2c(=O)[nH]1`, the IC50 in the data set on SARS-CoV-2 was above 25 µM. Also, in the data set with Vero, the CC50 is above 25 µM. Moreover, the “Ratio CC50/IC50” value in data set [3] was 1.

Consider `Nc1ccc2c(=O)[nH]c(Nc3cc(Cl)cc(Cl)c3)nc2c1`, for which, in the data set on SARS-CoV-2, the IC50 is above 25 µM. In addition, the 50% cytotoxic concentration (CC50) in the data set on Vero was above 25 µM. Also, the “Ratio CC50/IC50” value in data set [3] is given as 1.

Turning to `O=c1[nH]c(Nc2cc(F)cc(F)c2)nc2cc(Cl)ccc12`, the half-inhibitory concentration (IC50) with SARS-CoV-2 came to 0.24 µM; in data set [1] it was 0.39 µM. The “Ratio CC50/IC50” value worked out at 65 in data set [2] and 74 in data set [3]. Besides, the 50% cytotoxic concentration (CC50) in the data set on Vero is at least 18 µM.

The record behind these values is ChEMBL document CHEMBL4732249, “Design, synthesis and biological evaluation of 2-aminoquinazolin-4(3H)-one derivatives as potential SARS-CoV-2 and MERS-CoV treatments” (Bioorg Med Chem Lett, 2021).
